From paper PMC4718592, “Identification of Novel HLA-A*24:02-Restricted Epitope Derived from a Homeobox Protein Expressed in Hematological Malignancies” (PLoS ONE, 2016)

Columns and labels:
HLA-A24 [1] = experiment: Peptide binding assay on CIR-A24 cells; settings: 50 μg/mL peptide + 5 μg/mL β2-microglobulin, serum-free media, 24 hours, FITC anti-HLA-A24 staining, MFI with peptide / MFI without peptide, average of the two assays
Method: (§1) We assessed the binding ability of candidate peptides to HLA-A24 as described previously. CIR-A24 cells were incubated with 50 μg/mL peptides and 5μg/ mL of β2-microglobulin in serum-free media for 24 hours. After washing with PBS, the expression of HLA-A24 was measured by staining the cells with FITC-conjugated anti-HLA-A24 antibody (Mitsubishi-Kagaku, Tokyo, Japan). We also checked the stability of candidate peptides bound to the HLA-A24 molecule. CIR-A24 cells were incubated with 50 μg/mL peptides and 5 μg/mL of β2-microglobulin in serum-free media for 24 hours, followed by addition of 50 μg/ mL of brefeldin A (Sigma-Aldrich) for 4 hours. The expression of HLA-A24 was detected by staining the cells with FITC-conjugated anti-HLA-A24 antibody (Mitsubishi). MFI (mean fluorescence intensity) ratio was calculated as follows; MFI of CIR-A24 pulsed with each candidate peptide / MFI of CIR-A24 without peptide.

HLA-A24 [2] = experiment: Peptide stability assay on CIR-A24 cells (brefeldin A); format: binding; settings: 50 μg/mL peptide + 5 μg/mL β2-microglobulin, 24 hours, then 50 μg/mL brefeldin A for 4 hours, FITC anti-HLA-A24 staining, MFI with peptide / MFI without peptide, average of the two assays
Method: as §1

HL60 and PL21 cells = experiment: PEPP2 expression after demethylating agent, leukemia cell lines (RT-PCR, quantitative PCR, immunohistochemistry); format: cell-based
PBMNCs from HD = experiment: PEPP2 expression after demethylating agent, healthy donor PBMNCs; format: cell-based, human; settings: PBMCs from healthy donor, 200 nM for 72 hours
PL21 cells [3] = experiment: 51Cr release cytotoxicity of PEPP2-specific CTLs against drug-pretreated PL21 cells; settings: PL21 pretreated for 72 hours
Method: (§2) PL21 and HL60 cells and PBMNCs from HD were cultured in AIM-V medium (Life Technologies) supplemented with 10% human serum (Lonza, Walkersville, MD) in 6-well culture plates and 200 nM of 5-aza-2′-deoxycytidine (Sigma-Aldrich) was added every 24 hours for 72 hours.
(§3) The cytotoxic activity of the CTLs was measured using a standard ^51Cr release assay. Target cells were labeled with 50 μCi of ^51Cr (PerkinElmer Inc., Waltham, MA) for 60 min at 37°C. CIR-A24 cells were then incubated with 5 μg/mL of peptide for 1 hour. For the blocking assay, KMS21 cells were treated with mouse anti-HLA class I antibody (w6/32; eBioscience, San Diego, CA) or mouse IgG isotype antibody (eBioscience). The target cells were mixed with effector cells. After 4 hours, supernatants were transferred to LumaPlates (PerkinElmer) and allowed to air dry in a hood overnight. Plates were sealed and counted in MicroBeta® Trilux instrument (PerkinElmer). Percent specific lysis for ^51Cr release was calculated as [(experimental ^51Cr release—spontaneous ^51Cr release) / (maximum ^51Cr release—spontaneous ^51Cr release)] x 100.

[4] = test system: PBMNCs from HLA-A*24:02-positive healthy donor; settings: PBMNCs pretreated for 72 hours, 51Cr release
Method: as §2, §3

PL21 cells [5] = settings: flow cytometry
leukemia cells = experiment: Viability of leukemia cells after drug treatment; settings: data not shown
[6] = test system: HLA-A*24:02 positive lymphocytes isolated from healthy donors; experiment: Induction of PEPP2 peptide-specific CTLs from PBMCs of healthy donors; format: cell-based, human; settings: HLA-A*24:02 positive healthy donor lymphocytes stimulated with peptide-pulsed DC and PHA blasts; IFN-γ ELISpot
Method: CTLs were generated by in vitro stimulation with peptide-pulsed autologous dendritic cells and phytohemagglutinin (PHA) blasts. Briefly, PBMNCs were isolated from whole blood of HLA-A*24:02-positive HD by Ficoll density gradient centrifugation. Dendritic cells (DC) were generated by isolating CD14^+ cells using a MACS separation system (Miltenyi Biotec, Bergisch Gladbach, Germany). The CD14^+ cells were cultured in AIM-V medium supplemented with 10% human serum, 100 ng/mL of IL-4 (R&D Systems) and 100 ng/mL of GM-CSF (R&D Systems) for 5 days, then 20 ng/mL of TNF-α (R&D Systems) was added to generate DC. PHA blasts were derived from CD14^- cells by culturing in AIM-V medium supplemented with 10% human serum, 100 units of IL-2 and 1μ g/mL of PHA for 2 days. The DC or PHA blasts were pulsed with 50μg/L of peptide at room temperature for 3 hours and then irradiated (mediXtec, Chiba, Japan). On day 0, CD14^- cells were stimulated with irradiated peptide-pulsed DC in AIM-V medium with 10% human serum supplemented with 10 ng/mL of IL-7 (R&D Systems), then 50 ng/mL of IL-2 was added every 2 to 3 days. The cells were stimulated weekly with irradiated peptide-pulsed autologous PHA blasts, then CD3^+CD8^+ cells were purified with immunomagnetic beads (Miltenyi Biotec).
IFN-γ secretion of CTLs in response to target cells was detected using ELISpot assay. Briefly, effector cells were incubated with target cells in plates coated with anti-IFNγ antibody (1-D1K; Mabtech Inc., Cincinnati, OH). After incubation for 20 hours, biotinylated antibody specific for IFN γ (7-B6-1; Mabtech) was added for 2 hours at room temperature and then streptavidin-alkaline phosphatase (Mabtech) was added for 1 hour. To develop spots, nitroblue tetrazolium and 5-bromo-4-chloro-3-indolyl phosphate (Biorad) were added and the color development was stopped by rinsing with distilled water. The resulting spots were counted using a CTL-ImmunoSpot® analyzer (Cellular Technology Ltd., Shaker Heights, OH)

CIR-A24 cells = experiment: 51Cr release cytotoxicity assay of PEPP2-specific CTLs against peptide-pulsed cells; format: cell-based
Excerpt: The target cells were mixed with effector cells.

| Molecule | Binding MFI ratio (HLA-A24 [1]) | Stability MFI ratio (HLA-A24 [2]) | also measured |
| --- | --- | --- | --- |
| FTPLQLQEL [PEPP2^141-149] | 0.860 | 0.687 | – |
| GGAGVPGHL [PEPP2^81-89] | 0.852 | 0.785 | – |
| Nc1ncn([C@H]2C[C@H](O)[C@@H](CO)O2)c(=O)n1 [5-aza-2′-deoxycytidine] | – | – | PEPP2 gene expression after treatment (HL60 and PL21 cells; HL60 and PL21, 200 nM for 72 hours, RT-PCR / quantitative PCR): significantly up-regulated; PEPP2 protein expression after treatment (HL60 and PL21 cells; treated vs untreated cells, 200 nM for 72 hours, immunohistochemistry): increased; PEPP2 gene and protein expression after treatment (PBMNCs from HD): did not change; Cytotoxicity of PEPP2-specific CTLs against treated cells compared with non-treated cells (PL21 cells [3]): enhanced cytotoxicity; Recognition of treated normal PBMNCs by PEPP2-specific CTLs [4]: didn’t recognize; HLA-class I expression after treatment (PL21 cells [5]): up-regulated; PD-L1 expression level after treatment (PL21 cells [5]; confirmed by quantitative PCR): slightly up-regulated; Viability of leukemia cells after treatment with the drug (leukemia cells): more than 90% |
| TYGPVFMCL [EBV, reference compound] | 1.204 | 1.320 | – |
| DYFWDHSHS [PEPP2^231-239] | 0.889 | 0.869 | – |
| MPPFPPPSL [PEPP2^246-254] | 0.985 | 0.914 | – |
| CSQYMTSSL [PEPP2^7-15] | 1.103 | 1.041 | – |
| RALMARNML [PEPP2^194-202] | 0.954 | 0.599 | – |
| SLPLPLMLL [PEPP2^253-261] | 1.277 | 1.103 | Induction of PEPP2-specific CTL [6]: could not induce PEPP2-specific CTL |
| AFTPIQLQEL [PEPP2^140-149] | 1.363 | 0.851 | Induction of PEPP2-specific CTL [6]: could not induce PEPP2-specific CTL |
| PFPPPSLPL [PEPP2^248-256] | 1.069 | 0.926 | – |
| FVIVPSFTF [PEPP2^277-285] | 1.181 | 0.928 | – |
| ERIFQREQF [PEPP2^150-158] | 0.747 | 0.690 | – |
| LQDMNAMVL [PEPP2^25-33] | 0.768 | 0.761 | – |
| VHAFTPLQL [PEPP2^138-146] | 0.992 | 0.748 | – |
| QGTAAGEKL [PEPP2^52-60] | 0.820 | 0.938 | – |
| QCSQYMTSL [PEPP2^6-14] | 0.724 | 0.614 | – |
| QYSRPQGAV [PEPP2^117-125] | 0.882 | 0.977 | – |
| QYMTSLLSPA [PEPP2^9-18] | 1.354 | 0.865 | – |
| EFGPFPFVI [PEPP2^271-279] | 1.153 | 1.201 | Induction of PEPP2-specific CTL [6]: could induce PEPP2-specific CTL; Lysis of peptide-pulsed C1R-A24 cells by PEPP2-specific CTLs (CIR-A24 cells; 4 hours, targets pulsed with 5 μg/mL peptide): could lyse C1R-A24 cells only when the target cells were pulsed; Dose dependence of recognition by CTLs (CIR-A24 cells; CIR-A24 pulsed with various concentrations of peptide, E/T ratio of 30): peptide dose-dependent |
| QLQELERIF [PEPP2^145-153] | 0.767 | 1.071 | – |
| LQLQELERI [PEPP2^144-152] | 0.695 | 0.738 | – |
| DMNAMVSL [PEPP2^27-35] | 0.936 | 0.831 | – |
| KWRRHQRAL [PEPP2^188-196, PEPP2-derived candidate peptide …] | 0.772 | 0.714 | – |
| RPQGAVGGL [PEPP2^120-128] | 0.746 | 0.754 | – |
